According to the NIST ThermoML archive (doi:10.1016/j.tca.2012.05.025):
Numbers after ± are expanded uncertainties.

Experiment: refractive index (Na D-line) (dimensionless); xn = mol fraction of the nth substance listed
Conditions: 101 kPa, Liquid, Standard Abbe refractometry

## CN(C)CCCO [3-dimethylamino-1-propanol] + O
293.15 K, x1 = 0.098
  refractive index: 1.3569 ± 0.005
293.15 K, x1 = 0.197
  refractive index: 1.3653 ± 0.005
293.15 K, x1 = 0.293
  refractive index: 1.3763 ± 0.005
293.15 K, x1 = 0.398
  refractive index: 1.4033 ± 0.005
293.15 K, x1 = 0.5
  refractive index: 1.4193 ± 0.005
293.15 K, x1 = 0.598
  refractive index: 1.4284 ± 0.005
293.15 K, x1 = 0.7
  refractive index: 1.4345 ± 0.005
293.15 K, x1 = 0.795
  refractive index: 1.4393 ± 0.005
293.15 K, x1 = 0.9
  refractive index: 1.443 ± 0.005
293.15 K, x1 = 1
  refractive index: 1.4368 ± 0.005
298.15 K, x1 = 0.098
  refractive index: 1.3562 ± 0.005
298.15 K, x1 = 0.197
  refractive index: 1.3644 ± 0.005
298.15 K, x1 = 0.293
  refractive index: 1.3752 ± 0.005
298.15 K, x1 = 0.398
  refractive index: 1.4018 ± 0.005
298.15 K, x1 = 0.5
  refractive index: 1.4172 ± 0.005
298.15 K, x1 = 0.598
  refractive index: 1.4268 ± 0.005
298.15 K, x1 = 0.7
  refractive index: 1.4329 ± 0.005
298.15 K, x1 = 0.795
  refractive index: 1.4377 ± 0.005
298.15 K, x1 = 0.9
  refractive index: 1.4405 ± 0.005
298.15 K, x1 = 1
  refractive index: 1.4347 ± 0.005
303.15 K, x1 = 0.098
  refractive index: 1.35534 ± 0.005
303.15 K, x1 = 0.197
  refractive index: 1.3635 ± 0.005
303.15 K, x1 = 0.293
  refractive index: 1.3742 ± 0.005
303.15 K, x1 = 0.398
  refractive index: 1.4004 ± 0.005
303.15 K, x1 = 0.5
  refractive index: 1.4155 ± 0.005
303.15 K, x1 = 0.598
  refractive index: 1.4251 ± 0.005
303.15 K, x1 = 0.7
  refractive index: 1.431 ± 0.005
303.15 K, x1 = 0.795
  refractive index: 1.4359 ± 0.005
303.15 K, x1 = 0.9
  refractive index: 1.439 ± 0.005
303.15 K, x1 = 1
  refractive index: 1.4326 ± 0.005
308.15 K, x1 = 0.098
  refractive index: 1.3545 ± 0.005
308.15 K, x1 = 0.197
  refractive index: 1.3625 ± 0.005
308.15 K, x1 = 0.293
  refractive index: 1.3731 ± 0.005
308.15 K, x1 = 0.398
  refractive index: 1.3987 ± 0.005
308.15 K, x1 = 0.5
  refractive index: 1.4139 ± 0.005
308.15 K, x1 = 0.598
  refractive index: 1.4233 ± 0.005
308.15 K, x1 = 0.7
  refractive index: 1.4291 ± 0.005
308.15 K, x1 = 0.795
  refractive index: 1.4338 ± 0.005
308.15 K, x1 = 0.9
  refractive index: 1.4369 ± 0.005
308.15 K, x1 = 1
  refractive index: 1.4305 ± 0.005
313.15 K, x1 = 0.098
  refractive index: 1.3537 ± 0.005
313.15 K, x1 = 0.197
  refractive index: 1.3615 ± 0.005
313.15 K, x1 = 0.293
  refractive index: 1.3719 ± 0.005
313.15 K, x1 = 0.398
  refractive index: 1.3972 ± 0.005
313.15 K, x1 = 0.5
  refractive index: 1.4121 ± 0.005
313.15 K, x1 = 0.598
  refractive index: 1.4216 ± 0.005
313.15 K, x1 = 0.7
  refractive index: 1.4273 ± 0.005
313.15 K, x1 = 0.795
  refractive index: 1.4319 ± 0.005
313.15 K, x1 = 0.9
  refractive index: 1.4349 ± 0.005
313.15 K, x1 = 1
  refractive index: 1.4285 ± 0.005
318.15 K, x1 = 0.098
  refractive index: 1.3528 ± 0.005
318.15 K, x1 = 0.197
  refractive index: 1.3605 ± 0.005
318.15 K, x1 = 0.293
  refractive index: 1.3708 ± 0.005
318.15 K, x1 = 0.398
  refractive index: 1.3956 ± 0.005
318.15 K, x1 = 0.5
  refractive index: 1.4105 ± 0.005
318.15 K, x1 = 0.598
  refractive index: 1.4199 ± 0.005
318.15 K, x1 = 0.7
  refractive index: 1.4255 ± 0.005
318.15 K, x1 = 0.795
  refractive index: 1.4302 ± 0.005
318.15 K, x1 = 0.9
  refractive index: 1.4324 ± 0.005
318.15 K, x1 = 1
  refractive index: 1.4264 ± 0.005
323.15 K, x1 = 0.098
  refractive index: 1.3517 ± 0.005
323.15 K, x1 = 0.197
  refractive index: 1.3593 ± 0.005
323.15 K, x1 = 0.293
  refractive index: 1.3696 ± 0.005
323.15 K, x1 = 0.398
  refractive index: 1.3947 ± 0.005
323.15 K, x1 = 0.5
  refractive index: 1.4088 ± 0.005
323.15 K, x1 = 0.598
  refractive index: 1.418 ± 0.005
323.15 K, x1 = 0.7
  refractive index: 1.4239 ± 0.005
323.15 K, x1 = 0.795
  refractive index: 1.4286 ± 0.005
323.15 K, x1 = 0.9
  refractive index: 1.4315 ± 0.005
323.15 K, x1 = 1
  refractive index: 1.4243 ± 0.005
328.15 K, x1 = 0.098
  refractive index: 1.3506 ± 0.005
328.15 K, x1 = 0.197
  refractive index: 1.3582 ± 0.005
328.15 K, x1 = 0.293
  refractive index: 1.3682 ± 0.005
328.15 K, x1 = 0.398
  refractive index: 1.3925 ± 0.005
328.15 K, x1 = 0.5
  refractive index: 1.4072 ± 0.005
328.15 K, x1 = 0.598
  refractive index: 1.4164 ± 0.005
328.15 K, x1 = 0.7
  refractive index: 1.4226 ± 0.005
328.15 K, x1 = 0.795
  refractive index: 1.427 ± 0.005
328.15 K, x1 = 0.9
  refractive index: 1.4301 ± 0.005
328.15 K, x1 = 1
  refractive index: 1.4222 ± 0.005
333.15 K, x1 = 0.098
  refractive index: 1.3502 ± 0.005
333.15 K, x1 = 0.197
  refractive index: 1.3571 ± 0.005
333.15 K, x1 = 0.293
  refractive index: 1.3671 ± 0.005
333.15 K, x1 = 0.398
  refractive index: 1.391 ± 0.005
333.15 K, x1 = 0.5
  refractive index: 1.4056 ± 0.005
333.15 K, x1 = 0.598
  refractive index: 1.4146 ± 0.005
333.15 K, x1 = 0.7
  refractive index: 1.4204 ± 0.005
333.15 K, x1 = 0.795
  refractive index: 1.4245 ± 0.005
333.15 K, x1 = 0.9
  refractive index: 1.4278 ± 0.005
333.15 K, x1 = 1
  refractive index: 1.42 ± 0.005
